Experimental data published in the RepoRT retention time repository (doi:10.1021/acs.analchem.2c02893).

Assay: RP, Thermo Scientific Acclaim RSLC 120 C18, 100 × 2.1 mm, 2.2 µm, 30 °C, 0.2 mL/min, estimated dead time 1.1 min; A: 90% water + 10% methanol + 0.01% formic acid + 5 mM ammonium formate, pH 3.61; B: methanol + 0.01% formic acid + 5 mM ammonium formate, pH 3.61; gradient (min/%B) 0/1 1/1 2/39 13/99.9 15/99.9 15.1/1 20.1/1
Conditions: stereoisomer not certain

Row | LC retention time [min] | Compound
1 | 8.68 | COc1ccc2cccc(CCNC(C)=O)c2c1 [Agomelatine]
2 | 9.56 | CC12CCC3c4ccc(O)cc4CCC3C1CCC2=O (configuration not stated) [E1 (1-3-5(10)-estratrien-3-ol-17-one estrone)]
3 | 5.73 | CCN(CC)C(=O)C1(c2ccccc2)CC1CN (configuration not stated) [Milnacipran]
4 | 5.51 | CN1CCCC1Cc1c[nH]c2ccc(CCS(=O)(=O)c3ccccc3)cc12 (configuration not stated) [Eletriptan]
5 | 4.53 | NS(=O)(=O)Cc1noc2ccccc12 [Zonisamide]
6 | 5.08 | NC(CC(=O)N1CCn2c(nnc2C(F)(F)F)C1)Cc1cc(F)c(F)cc1F (configuration not stated) [Sitagliptin]
7 | 5.11 | COc1ccccc1OCC(O)CO (configuration not stated) [Guaifenesin]
8 | 9.61 | CCCCC1(COC(=O)CCC(=O)O)C(=O)N(c2ccccc2)N(c2ccccc2)C1=O [Suxibuzone]
9 | 8.05 | CCCc1nc(C)c2c(=O)[nH]c(-c3cc(S(=O)(=O)N4CCN(CCO)CC4)ccc3OCC)nn12 [Vardenafil-Hydroxy]
10 | 7.83 | CCCCNc1cc(C(=O)O)cc(S(N)(=O)=O)c1Oc1ccccc1 [Bumetanide]
11 | 6.84 | CN1C(C(=O)Nc2ccccn2)=C(O)c2ccccc2S1(=O)=O [Piroxicam]
12 | 10.9 | Cc1nn(C)c(OCC(=O)c2ccccc2)c1C(=O)c1ccc(Cl)cc1Cl [Pyrazoxyfen]
13 | 5.06 | NS(=O)(=O)c1cc(C2(O)NC(=O)c3ccccc32)ccc1Cl (configuration not stated) [Chlorthalidone]
14 | 10.2 | CN(C)C=Nc1c(I)cc(I)c(CCC(=O)O)c1I [Iopodic acid]
15 | 15 | CCCCCCCCCCCCCCCCCC[N+](C)(C)CCCCCCCCCCCCCCCCCC [Dimethyldioctadecylammonium]
16 | 4.33 | CC[N+]1([O-])CCCC1CNC(=O)c1cc(S(=O)(=O)CC)c(N)cc1OC (configuration not stated) [Amisulpride-N-Oxide]

Row | LC retention time [min] | Compound
17 | 13.4 | COC1CC(OC2C(C)OC(OC3C(C)=CCC4CC(CC5(C=CC(C)C(C(C)C)O5)O4)OC(=O)C4C=C(C)C(O)C5OCC(=CC=CC3C)C45O)CC2OC)OC(C)C1O (configuration not stated) [AvermectinB1b (Abamectin)]
18 | 5.21 | COc1ccccc1OCC(O)COC(N)=O (configuration not stated) [Methocarbamol]
19 | 6.32 | CN(C)CCN(Cc1cccs1)c1ccccc1 [Methaphenilene]
20 | 7.54 | CNCCOC(c1ccccc1)c1ccccc1C (configuration not stated) [Orphenadrine-Nor (Tofenacin. Elamol)]
21 | 4.38 | COc1ccc(NS(=O)(=O)c2ccc(N)cc2)nn1 [Sulfamethoxypyridazine]
22 | 11.3 | CCON=C(OC(=O)c1ccccc1)c1c(OC)ccc(Cl)c1OC [Benzoximate]
23 | 9.09 | C=CCOC(Cn1ccnc1)c1ccc(Cl)cc1Cl (configuration not stated) [Imazalil]
24 | 8.27 | Cc1cc(C)n(-c2nc3ccccc3[nH]2)n1 [Rabenzazole]
25 | 7.7 | O=c1c(-c2ccc(O)cc2)coc2cc(O)cc(O)c12 [Genistein]
26 | 6.64 | CN(C)CCOCC(=O)NC12CC3CC(CC(C3)C1)C2 [Tromantadine]
27 | 5.01 | COC(=O)C(Cc1ccccc1)NC(=O)C(N)CC(=O)O (configuration not stated) [Aspartame]
28 | 10.2 | CCNc1nc(Cl)nc(N(CC)CC)n1 [Trietazine]
29 | 13.4 | C=CCNc1nc(NCC=C)nc(N2CCN(C(c3ccc(F)cc3)c3ccc(F)cc3)CC2)n1 [Almitrine]
30 | 6.53 | Cln1nnc2ccccc21 [Benzotriazole-chloro]
31 | 8.6 | CNCCC(Oc1ccc(C(F)(F)F)cc1)c1ccccc1 (configuration not stated) [Fluoxetine]
32 | 1.36 | NC(=O)c1ncn(C2OC(CO)C(O)C2O)n1 (configuration not stated) [Ribavirin]

Row | Compound | LC retention time [min]
33 | CN(C)CCc1c[nH]c2ccccc12 [DMT (Dimethyltryptamine)] | 3.94
34 | COC(=O)Nc1cccc(OC(=O)Nc2cccc(C)c2)c1 [Phenmedipham] | 8.75
35 | O=C(Oc1cccc2cccnc12)c1nn(CCCCCF)c2ccccc12 [NPB-22-5F] | 10.3
36 | NC(=S)c1c(Cl)cccc1Cl [Chlorothiamide] | 5.69
37 | CC1(C)C(C=C(Cl)C(F)(F)F)C1C(=O)OC(C#N)c1cccc(Oc2ccccc2)c1 (configuration not stated) [Cyhalothrin (lambda-)] | 13
38 | CCCCCn1c2ccccc2c2cc(C(=O)c3cccc4ccccc34)ccc21 [EG-018] | 14.2
39 | COc1ccc2c(c1)C13CCCCC1C(C2)N(C)CC3 (configuration not stated) [Dextromethorphan] | 6.51
40 | CCC(C(=O)O)C1OC(C(C)C(O)C(C)C(=O)C(CC)C2OC3(C=CC(O)C4(CCC(C)(C5CCC(O)(CC)C(C)O5)O4)O3)C(C)CC2C)C(C)CC1C (configuration not stated) [Narasin] | 16.1
41 | Cn1c(-c2ccccc2)cc(-c2ccccc2)[n+]1C [Difenzoquat (Ion 1+)] | 5.21
42 | COC(=O)C(NC(=O)c1cn(CCCCCF)c2ccccc12)C(C)C (configuration not stated) [MMB-2201] | 10
43 | CC(C)OC(=O)Nc1cccc(Cl)c1 [Chlorpropham] | 9.78
44 | CC1(C)CCC(Cc2ccc(Cl)cc2)C1(O)Cn1cncn1 (configuration not stated) [Metconazole] | 11.2
45 | COP(=S)(Oc1cc(Cl)c(Br)cc1Cl)c1ccccc1 (configuration not stated) [Leptophos] | 13.8
46 | C=CCN1CCC23c4c5ccc(O)c4OC2C(O)C=CC3C1C5 (configuration not stated) [Nalorphine] | 3.39
47 | CCCCCc1cc(O)c2c(c1)OC(C)(C)c1ccc(C)cc1-2 [Cannabinol] | 13.7
48 | N#Cc1nn(-c2c(Cl)cc(C(F)(F)F)cc2Cl)c(N)c1S(=O)C(F)(F)F (configuration not stated) [Fipronil] | 10.5
49 | CC(C)N(C(=O)COc1nnc(C(F)(F)F)s1)c1ccc(F)cc1 [Flufenacet] | 10.1
50 | COc1ccc2c3c1OC1C(O)C=CC4C(C2)N(C)CCC341 (configuration not stated) [Codeine] | 3.4
51 | N#Cc1c[nH]cc1-c1cccc2c1OC(F)(F)O2 [Fludioxonil] | 9.48
52 | O=C(O)C1C2CCC(O2)C1C(=O)O (configuration not stated) [Endothal] | 3.2
53 | CNC(=O)Oc1cccc(N=CN(C)C)c1 [Formetanate] | 3.14
54 | COc1ccc(C(O)(c2cncnc2)C2CC2)cc1 (configuration not stated) [Ancymidol] | 7.15
55 | CC(C)CC(CN)CC(=O)O (configuration not stated) [Pregabalin] | 3.88
56 | COc1ccc2[nH]cc(CC(C)N)c2c1 (configuration not stated) [MeO-AMT (5-)] | 4.36
57 | O=C1C(Cl)C(CCl)CN1c1cccc(C(F)(F)F)c1 (configuration not stated) [Flurochloridone] | 9.84
58 | Nc1nc(N)nc(Cl)n1 [Atrazine-desethyl-desisopropyl] | 3.03
59 | CC1=NNC(=O)N(N=Cc2cccnc2)C1 [Pymetrozine] | 4.01
60 | O=c1oc2ccccc2c(O)c1C1CC(c2ccc(OCc3ccc(C(F)(F)F)cc3)cc2)Cc2ccccc21 (configuration not stated) [Flocoumafen] | 12.4
61 | COc1cccc(C2(O)CCCCC2CN)c1 (configuration not stated) [Tramadol-N-bisdesmethyl (dinor-tramadol)] | 5.19
62 | COC(=O)c1ccccc1S(=O)(=O)NC(=O)Nc1nc(C)nc(OC)n1 [Metsulfuron-methyl] | 6.31
